From PMC10547211, “Neuronal expression in Drosophila of an evolutionarily conserved metallophosphodiesterase reveals pleiotropic roles in longevity and odorant response” (PLOS Genetics, 2023)

Target: T1, dMpped (Drosophila melanogaster, UniProt Q9VT29)
T1 construct: gene Mpped; full-length coding region (300 residues) amplified from whole-fly cDNA; E. coli BL21DE3; gel filtration; about 37 kDa on gel
Experiment: colorimetric p-nitrophenol release, […] nm
Format: biochemical
Details: Mn2+ as metal cofactor (5 mM in standard assay); pH 9.0 triple buffer; 5 mM 2-mercaptoethanol; 10 mM NaCl

T1 sequence (Q9VT29 entry or part of it): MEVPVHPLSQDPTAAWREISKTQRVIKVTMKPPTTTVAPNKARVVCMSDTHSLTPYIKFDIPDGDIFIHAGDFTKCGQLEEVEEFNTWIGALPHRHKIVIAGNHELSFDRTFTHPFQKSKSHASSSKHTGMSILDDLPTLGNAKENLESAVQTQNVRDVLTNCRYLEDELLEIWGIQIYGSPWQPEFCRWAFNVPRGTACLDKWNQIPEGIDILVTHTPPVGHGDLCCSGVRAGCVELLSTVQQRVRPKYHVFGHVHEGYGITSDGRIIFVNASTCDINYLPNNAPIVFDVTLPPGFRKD

**Q.** With `O=[N+]([O-])c1ccc(OP(=O)(O)c2ccccc2)cc1` [pNPPP] as the molecule, how does the Km read?
**A.** Its Km is roughly 10 mM.
